Tested on: normal human keratinocytes
Experiment: Proliferation of normal human keratinocytes cultured as a monolayer (BrdU test; score versus epinephrine)
Assay type: cell-based
Details: at 10^-5 M; keratinocyte monolayer; 72 h
Method: Study of the effect of 1,3,5-trimethoxybenzene on the proliferation of normal human keratinocytes cultured as a monolayer:
The products are tested on 2nd passage normal human keratinocytes cultured in KGM medium (serum-free defined medium sold by the company Clonetics). The range of concentrations is between 10^-4 M and 10^-7 M. The products are tested twice on 2 different plates.
250 ng/ml epinephrine is employed as positive control of the proliferation.
The products are dissolved in dimethyl sulphoxide (DMSO). A 1×10^-2 M mother solution is prepared in DMSO. The following dilutions are carried out in KGM.
The keratinocytes are seeded at 6000 cells/cm^2. After culturing for 24 h, the product is applied to the cells for 72 h. The medium is replaced after treatment for 48 h.
BrdU kit (Boehringer Mannheim).
On the second day of treatment, a thymidine analogue (BrdU) is added to the culture medium overnight. This analogue makes it possible to label the cells during DNA synthesis. On the third day of treatment, the cells which have incorporated BrdU are identified with an anti-BrdU antibody.
For each product, the score (see table) is attributed as a function of the result obtained with respect to epinephrine (positive control for the proliferation).

## COc1cc(OC)cc(OC)c1 [1,3,5-Trimethoxybenzene, 1,3,5-trimethoxybenzene]
  Proliferative effect: induces proliferation of the keratinocytes

Source: US6054137A, “Promoting epidermal renewal with phloroglucinol” (Societe L'Oreal S.A., priority 1997, dated 2000)
